{"source": "patent US6610502B1", "about": "“Compound 2-amino-3-[2-(α-mannopyranosyl)indol-3-yl]propionic acid, process for preparing the same, and method for inspecting function of living body with the novel compound” (Kyowa Medex Co., Ltd., priority 1997, dated 2003)", "assay": "Quantitation of the compound in amniotic fluid by high performance liquid chromatography (Example 5)", "format": "in vivo, human", "description": "Standard solution of 2-amino-3-[2-(α-mannopyranosyl)indole-3-yl]propionic acid obtained in Example 1 above was prepared. Next, 350 μl of the standard solution was added to 500 μl of 0.1N hydrochloric acid containing 1% vitamin C, mixed with 50 μl of 40 μM N-methyl serotonin as an internal standard then 100 μl of 60% perchloric acid, and centrifuged at 3000 rpm at 4° C. The supernatant was filtered through a 0.22 μm filter to obtain a filtrate.\nThe filtrate was subjected to high performance liquid chromatography under the following conditions:\nAmniotic fluids from pregnant healthy persons and pregnant patients with uremic syndrome staying in hospital were quantitated for the compound of the present invention. Amniotic fluids were collected from 21 healthy persons (21-41 weeks old) and 9 pregnant patients with uremic syndrome (24-49 weeks old), and assayed for the compound of the present invention. The quantitation was performed in the same manner as that of Example 2 except that amniotic fluids were used instead of the standard solution. The results are shown in FIG. 4 in which Δ and ● show the healthy persons and the pregnant patients with uremic syndrome, respectively. As shown in this figure, 353.0 ng/ml (SD 120.1) was obtained for the healthy persons while […] for the pregnant patients with uremic syndrome."}
{"smiles": "NC(Cc1c([C@H]2O[C@H](CO)[C@@H](O)[C@H](O)[C@@H]2O)[nH]c2ccccc12)C(=O)O", "note": "(stereo partly drawn) [the present compound, 2-amino-3-[2-(α-mannopyranosyl)indole-3-yl]propionic acid]", "values": [{"measurement": "range of levels in amniotic fluids from 99% of subjects", "setting": "healthy persons (n=21)", "result": "113 to 593", "unit": "ng/mL"}, {"measurement": "level in amniotic fluids", "setting": "pregnant healthy persons (n=21), SD 120.1", "result": 353.0, "unit": "ng/mL"}, {"measurement": "range of levels in amniotic fluids from 99% of subjects", "setting": "pregnant patients with uremic syndrome (n=9)", "result": "675 to 2147", "unit": "ng/mL"}, {"measurement": "level in amniotic fluids", "setting": "pregnant patients with uremic syndrome (n=9), SD 367.9", "result": 410.7, "unit": "ng/mL"}]}
